Measured values taken from US11479551B2, “MTA-cooperative PRMT5 inhibitors” (Mirati Therapeutics, Inc., priority 2019, dated 2022).

Assays:
[1] = biological target: T1, PRMT5/MEP50 complex (Homo sapiens (Human), UniProt O14744); assay: PRMT5:MEP50 FlashPlate Assay (histone H4 peptide substrate, plus and minus MTA); assay type: biochemical
Method: The PRMT5 inhibitory activity of compounds of the present invention was determined using either a PRMT5:MEP50 FlashPlate Assay (Reaction Biology Corporation) or a PRMT5:MEP50 HotSpot Assay (Reaction Biology Corporation).
1. PRMT5:MEP50 FlashPlate Assay

[2] = system: PRMT5-dependent Symmetric Di-methyl Arginine signal in HCT116 homozygous MTAP knockout cells; assay: SYM11 In-Cell Western, HCT116 MTAP knockout; assay type: cell-based; details: Homo sapiens, HCT-116, 96 h, HCT116 homozygous MTAP knockout cells, 4 days of treatment, SYM11/DRAQ5 ratio; read-out: In-cell-Western (SYM11) HCT116 MTAP_KO IC50
[3] = biological target: T1, PRMT5/MEP50 complex; assay: PRMT5:MEP50 HotSpot Assay (full-length histone H2A substrate, plus and minus MTA); assay type: biochemical; details: IC50 + 2 μM MTA, in the presence of 2 μM MTA
How it was run: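 Radiometric filter-binding format using recombinant full-length histone H2A as substrate. After the reaction was stopped, mixtures went onto filter paper and tritiated H2A was quantified by scintillation counting.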

[4] = system: HCT116 parental cells; assay: Proliferation assay (CellTiter-Glo, 10 days of treatment), HCT116 parental; assay type: cell-based; details: Homo sapiens, HCT-116, 240 h
How it was run: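 250 cells seeded in McCoy's 5A with 10% FBS, then given a dose response of PRMT5 inhibitor at 37 °C, 5% CO2 for five days. Cells were split 1:10 on Day 6 into fresh medium with the same compound concentration for 5 more days. Viability read on Day 11 by CellTiter-Glo; IC50 after 10 days of treatment.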

[5] = system: PRMT5-dependent Symmetric Di-methyl Arginine signal in HCT116 parental cells; assay: SYM11 In-Cell Western, HCT116 parental; assay type: cell-based; details: Homo sapiens, HCT-116, 96 h, 4 days of treatment, SYM11/DRAQ5 ratio
How it was run: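 HCT116 parental cells (2,000/well, McCoy's 5A with 10% FBS) dosed with PRMT5 inhibitors for four days at 37° C. Fixed in paraformaldehyde and methanol, then stained with SYM11 antibody and DRAQ5.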

[6] = system: HCT116 homozygous MTAP knockout cells; assay: Proliferation assay (CellTiter-Glo, 10 days of treatment), HCT116 MTAP knockout; assay type: cell-based; details: Homo sapiens, HCT-116, 240 h, read-out: Proliferation HCT116MTAP_KO IC50
How it was run: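 Cells (250/well) seeded in McCoy's 5A with 10% FBS, then treated the next day with a PRMT5 inhibitor dose response at 37 °C, 5% CO2. On day 6 they were split 1:10 into fresh medium with the same compound concentration. CellTiter-Glo viability was read on day 11 and IC50 taken after 10 days of treatment.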

[7] = IC50 + 2 μM MTA (nM), in the presence of 2 μM MTA
[8] = in the absence of MTA, read-out: IC50

T1 sequence (O14744 2-637): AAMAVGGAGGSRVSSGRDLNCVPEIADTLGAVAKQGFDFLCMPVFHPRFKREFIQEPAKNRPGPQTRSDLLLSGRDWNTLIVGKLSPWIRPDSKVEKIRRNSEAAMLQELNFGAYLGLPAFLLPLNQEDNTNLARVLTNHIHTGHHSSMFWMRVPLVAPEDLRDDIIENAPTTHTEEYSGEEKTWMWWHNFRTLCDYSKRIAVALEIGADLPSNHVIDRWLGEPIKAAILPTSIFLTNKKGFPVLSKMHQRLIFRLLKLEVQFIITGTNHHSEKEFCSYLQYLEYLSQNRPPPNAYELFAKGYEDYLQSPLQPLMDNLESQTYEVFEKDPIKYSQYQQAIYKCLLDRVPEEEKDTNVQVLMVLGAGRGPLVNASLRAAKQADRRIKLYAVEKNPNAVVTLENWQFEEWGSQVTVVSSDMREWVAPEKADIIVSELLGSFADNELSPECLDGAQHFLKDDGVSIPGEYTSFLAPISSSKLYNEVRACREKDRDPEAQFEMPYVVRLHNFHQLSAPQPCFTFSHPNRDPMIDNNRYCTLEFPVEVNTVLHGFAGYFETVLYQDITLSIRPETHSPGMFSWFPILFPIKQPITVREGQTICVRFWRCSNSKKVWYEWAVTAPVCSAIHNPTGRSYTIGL
T1 sequence (Q9BQA1 2-342 partner): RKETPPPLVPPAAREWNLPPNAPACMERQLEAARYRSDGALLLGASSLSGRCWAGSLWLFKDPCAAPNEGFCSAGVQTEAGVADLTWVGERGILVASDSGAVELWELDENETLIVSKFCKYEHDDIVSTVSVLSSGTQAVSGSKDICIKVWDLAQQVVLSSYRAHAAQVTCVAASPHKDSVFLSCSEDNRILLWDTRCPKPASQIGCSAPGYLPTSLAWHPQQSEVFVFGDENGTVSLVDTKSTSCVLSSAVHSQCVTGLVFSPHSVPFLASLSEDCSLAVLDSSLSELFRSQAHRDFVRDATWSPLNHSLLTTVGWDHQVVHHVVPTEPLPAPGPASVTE

Row | SMILES | IC50 [1, 7] [nM] | IC50 [1, 8] [nM] | IC50 [2] [nM] | IC50 [3] [nM] | IC50 [6] [nM] | IC50 [4] [nM] | IC50 [5] [nM]
1 | Cc1cccc(-c2c(-c3ccc4c(=O)[nH]nc(CN)c4c3)cnn2C)c1 [Example 4-94, 4-(aminomethyl)-6-(1-methyl-5-(m-tolyl)-1H-pyrazol-4-yl)phthalazin-1(2H)-one] | 2.2 | 83 | 1180 | 737 | 1840 | 4880 | 10000
2 | Cn1ncc(-c2ccc3c(=O)[nH]nc(CN)c3c2)c1-c1ccccc1C#N [Example 4-100, 2-(4-(4-(aminomethyl)-1-oxo-1,2-dihydrophthalazin-6-yl)-1-methyl-1H-pyrazol-5-yl)benzonitrile] | 0.5 | 80 | 505 | 1510 | 5230 | 10000 | 10000
3 | Cn1ncc(-c2cc(Cl)c3c(=O)[nH]nc(CN)c3c2)c1-c1cccc(Cl)c1C#N [Example 10-3, 2-(4-(4-(aminomethyl)-8-chloro-1-oxo-1,2-dihydrophthalazin-6-yl)-1-methyl-1H-pyrazol-5-yl)-6-chlorobenzonitrile] |  |  | 5 | 845 | 240 | 8480 | 3820
4 | CCOc1cccc(-c2c(-c3cc(Cl)c4c(=O)[nH]nc(CN)c4c3)cnn2C)c1C#N [Example 10-5, 2-(4-(4-(aminomethyl)-8-chloro-1-oxo-1,2-dihydrophthalazin-6-yl)-1-methyl-1H-pyrazol-5-yl)-6-ethoxybenzonitrile] |  |  | 30 | 1150 | 250 | > 10000 | > 10000
5 | Cn1ncc(-c2cc(F)c3c(=O)[nH]nc(CN)c3c2)c1-c1cccc(Cl)c1C#N [Example 10-6, 2-(4-(4-(aminomethyl)-8-fluoro-1-oxo-1,2-dihydrophthalazin-6-yl)-1-methyl-1H-pyrazol-5-yl)-6-chlorobenzonitrile] |  |  | 219 | 6630 | 4090 | > 10000 | > 10000
6 | CCOc1cccc(-c2c(-c3cc(F)c4c(=O)[nH]nc(CN)c4c3)cnn2C)c1C#N [Example 10-10, 2-(4-(4-(aminomethyl)-8-fluoro-1-oxo-1,2-dihydrophthalazin-6-yl)-1-methyl-1H-pyrazol-5-yl)-6-ethoxybenzonitrile] |  |  | 89 | 2730 | 1250 | > 10000 | > 10000
7 | Cc1cc(-c2cnn(C)c2-c2ccc3ccccc3c2C#N)cc2c(CN)n[nH]c(=O)c12 [Example 10-11, 2-(4-(4-(aminomethyl)-8-methyl-1-oxo-1,2-dihydrophthalazin-6-yl)-1-methyl-1H-pyrazol-5-yl)-1-naphthonitrile] |  |  | 5 | 34 | 29 | 763 | 4260
8 | Cc1ccc(-c2c(-c3ccc4c(=O)[nH]nc(CN)c4c3)cnn2C)c(C#N)c1C [Example 12-2, 6-(4-(4-(aminomethyl)-1-oxo-1,2-dihydrophthalazin-6-yl)-1-methyl-1H-pyrazol-5-yl)-2,3-dimethylbenzonitrile] |  |  | 16 | 315 | > 10000 | 208 | 2200
9 | Cc1cccc2c(C#N)c(-c3c(-c4ccc5c(=O)[nH]nc(CN)c5c4)cnn3C)ccc12 [Example 12-9, 2-(4-(4-(aminomethyl)-1-oxo-1,2-dihydrophthalazin-6-yl)-1-methyl-1H-pyrazol-5-yl)-5-methyl-1-naphthonitrile] |  |  | 9 | 178 | 148 | 3350 | > 10000
10 | Cc1c(-c2cnn(C)c2)ccc(-c2c(-c3ccc4c(=O)[nH]nc(CN)c4c3)cnn2C)c1C#N [Example 12-13, 6-(4-(4-(aminomethyl)-1-oxo-1,2-dihydrophthalazin-6-yl)-1-methyl-1H-pyrazol-5-yl)-2-methyl-3-(1-methyl-1H-pyrazol-4-yl)benzonitrile] |  |  | 95 | 218 | 1410 | 2000 | > 1000

More lines, in order of falling IC50 [2], values ahead:

Row | IC50 [1, 7] [nM] | IC50 [1, 8] [nM] | IC50 [2] [nM] | IC50 [3] [nM] | IC50 [6] [nM] | SMILES | IC50 [4] [nM] | IC50 [5] [nM]
11 |  |  | 57 | 1970 | 807 | [2H]C([2H])(N)c1n[nH]c(=O)c2ccc(-c3cnn(C)c3-c3cccc(Cl)c3C#N)cc12 [Example 11-1, 2-(4-(4-(aminomethyl-d2)-1-oxo-1,2-dihydrophthalazin-6-yl)-1-methyl-1H-pyrazol-5-yl)-6-chlorobenzonitrile] | > 10000 | > 1000
12 |  |  | 31 | 107 | 103 | CCc1cccc(-c2c(-c3cc(C)c4c(=O)[nH]nc(CN)c4c3)cnn2C)c1C#N [Example 10-7, 2-(4-(4-(aminomethyl)-8-methyl-1-oxo-1,2-dihydrophthalazin-6-yl)-1-methyl-1H-pyrazol-5-yl)-6-ethylbenzonitrile] | 8390 | > 1000
13 |  |  | 28 | 316 | 158 | Cc1c(Cl)ccc(-c2c(-c3ccc4c(=O)[nH]nc(CN)c4c3)cnn2C)c1C#N [Example 12-1, 6-(4-(4-(aminomethyl)-1-oxo-1,2-dihydrophthalazin-6-yl)-1-methyl-1H-pyrazol-5-yl)-3-chloro-2-methylbenzonitrile] | > 10000 | > 1000
14 |  |  | 27 | 660 | 276 | CCc1cccc(-c2c(-c3cc(F)c4c(=O)[nH]nc(CN)c4c3)cnn2C)c1C#N [Example 10-8, 2-(4-(4-(aminomethyl)-8-fluoro-1-oxo-1,2-dihydrophthalazin-6-yl)-1-methyl-1H-pyrazol-5-yl)-6-ethylbenzonitrile] | > 10000 | 4720
15 |  |  | 18 | 234 | 125 | Cc1cc(C)c(C#N)c(-c2c(-c3ccc4c(=O)[nH]nc(CN)c4c3)cnn2C)c1 [Example 12-11, 2-(4-(4-(aminomethyl)-1-oxo-1,2-dihydrophthalazin-6-yl)-1-methyl-1H-pyrazol-5-yl)-4,6-dimethylbenzonitrile] | 8700 | 1230
16 |  |  | 15 | 182 | 226 | Cc1cc(C2CC2)cc(-c2c(-c3ccc4c(=O)[nH]nc(CN)c4c3)cnn2C)c1C#N [Example 12-14, 2-[4-[4-(aminomethyl)-1-oxo-2H-phthalazin-6-yl]-2-methyl-pyrazol-3-yl]-4-cyclopropyl-6-methyl-benzonitrile] | > 10000 | 1810
17 |  |  | 8 | 212 | 137 | CCc1cc(CC)c(C#N)c(-c2c(-c3ccc4c(=O)[nH]nc(CN)c4c3)cnn2C)c1 [Example 12-3, 2-[4-[4-(aminomethyl)-1-oxo-2H-phthalazin-6-yl]-2-methyl-pyrazol-3-yl]-4,6-diethyl-benzonitrile] | 1690 | > 1000
18 |  |  | 7 | 417 | 128 | CCc1cccc(-c2c(-c3cc(Cl)c4c(=O)[nH]nc(CN)c4c3)cnn2C)c1C#N [Example 10-4, 2-(4-(4-(aminomethyl)-8-chloro-1-oxo-1,2-dihydrophthalazin-6-yl)-1-methyl-1H-pyrazol-5-yl)-6-ethylbenzonitrile] | > 10000 | 9220
19 |  |  | 6 | 67.2 | 112 | Cn1ncc(-c2cc(F)c3c(=O)[nH]nc(CN)c3c2)c1-c1ccc2ccccc2c1C#N [Example 10-2, 2-(4-(4-(aminomethyl)-8-fluoro-1-oxo-1,2-dihydrophthalazin-6-yl)-1-methyl-1H-pyrazol-5-yl)-1-naphthonitrile] | 3380 | 2480
20 |  |  | 6 | 155 | 91 | Cc1cc(-c2cnn(C)c2-c2cccc(OC3CC3)c2C#N)cc2c(CN)n[nH]c(=O)c12 [Example 10-12, 2-(4-(4-(aminomethyl)-8-methyl-1-oxo-1,2-dihydrophthalazin-6-yl)-1-methyl-1H-pyrazol-5-yl)-6-cyclopropoxybenzonitrile] | 6200 | > 1000
21 |  |  | 1 | 138 | 94 | [2H]C([2H])(N)c1n[nH]c(=O)c2ccc(-c3cnn(C)c3-c3ccc4ccccc4c3C#N)cc12 [Example 11-2, 2-(4-(4-(aminomethyl-d2)-1-oxo-1,2-dihydrophthalazin-6-yl)-1-methyl-1H-pyrazol-5-yl)-1-naphthonitrile] | 1950 | > 10000
